The values that follow come from patent US20200237717A1, “Treatment of Staphylococcal and Enterococcal Infections Using Substituted Nitrostyrene Compounds” (Opal Biosciences Limited, priority 2017, published 2020).

Structures are written as SMILES. Values after ≈ are worked out from the molar mass of the structure shown. Like-named read-outs stand apart in the source and are kept apart here.

Series [1] has as its system MRSA isolate Sa375 (VISA). Briefly: microbe, parasite or virus in culture. The conditions noted are these: for MIC: Staphylococcus aureus. In kind it is cell-based, Staphylococcus aureus.
Series [2] concerns VSSA MRSA isolates (n = 43). Conditions: VSSA isolates (n = 43), BMD, previously determined; cited from earlier work.
The test system of series [3] is hVISA MRSA isolates (n = 54). Conditions: hVISA isolates (n = 54), BMD, previously determined; cited from earlier work.
The subject of series [4] is VISA MRSA isolates (n = 6). The conditions noted are these: VISA isolates (n = 6), BMD, previously determined; cited from earlier work.
In series [5] the test system is vancomycin intermediate-resistant S. aureus (VISA). The conditions noted are these: MRSA isolate reported in Japan in 1997 (VISA); cited from earlier work.
Series [6] concerns vancomycin-resistant S. aureus (VRSA) strain. Conditions: first VRSA strain, United States 2002; cited from earlier work.
Series [7] concerns MRSA bacteraemia isolates. Kind of series: BDM-I MIC by broth microdilution (BMD), collection of clinical MRSA isolates. Conditions: clinical MRSA isolates with varying vancomycin susceptibilities. Type of series: cell-based, Staphylococcus aureus. The procedure:
(§1) One-hundred and three MRSA bacteraemia isolates (from Liverpool Hospital, Sydney, Australia) were selected for this study. BDM-I MICs were determined by the broth microdilution method (BMD) as described by the CLSI (Clinical Laboratory Standards Institute, Methods for Dilution Antimicrobial Susceptibility Tests for Bacteria That Grow Aerobically: Ninth Edition: Approved Standard M07-A9, CLSI, Wayne, Pa., USA, 2012) using CAMHB (Oxoid-Thermo Fisher, Hampshire, UK). BDM-I concentrations ranged from 1 to 10 mg/L in 1 mg/L increments. All isolates had previously undergone vancomycin MIC testing and hVISA/VISA characterization (van Hal, Barbagiannakos et al., 2011; van Hal, Jones et al., 2011). Statistical analysis to determine correlation between variables was completed using the Spearman's test; with P<0.05 considered significant. Calculations were completed using SPSS statistical software (version 22.0; SPSS Inc, Chicago, Ill., USA).
(§2) The BDM-I MICs for a collection of clinical MRSA isolates, with varying vancomycin susceptibilities, were determined using the BMD method.
For orientation: Dilution methods test growth across graded concentrations, often in twofold steps.

Series [8] has as its system VSSA MRSA isolates (n = 43). Kind of series: MIC by BMD, MRSA isolates of VSSA phenotype. The conditions noted are these: Staphylococcus aureus, VSSA isolates (n = 43). In kind it is cell-based. The procedure: as §1, §2
Series [9] concerns hVISA MRSA isolates (n = 54). Kind of series: MIC by BMD, MRSA isolates of hVISA phenotype. The conditions noted are these: Staphylococcus aureus, hVISA isolates (n = 54). In kind it is cell-based. Here is the method: as §1, §2
The subject of series [10] is VISA MRSA isolates (n = 6). Kind of series: MIC by BMD, MRSA isolates of VISA phenotype. In kind it is cell-based. Conditions: Staphylococcus aureus, VISA isolates (n = 6). The procedure:
as §1, §2

The subject of series [11] is vanB VRE clinical isolates. Kind of series: BDM-I and vancomycin checkerboard assay (broth microdilution, FICI). In kind it is cell-based, Enterococcus faecium. The conditions noted are these: vancomycin combined with BDM-I at fixed concentrations, vanB VRE isolate; FICI ≤0.5 indicates synergy.
The subject of series [12] is many Gram-negative and most Gram-positive bacterial species as well as many fungal species. The conditions noted are these: literature report; cited from earlier work.
Series [13] deals with Mycobacterium tuberculosis. Conditions: literature report; cited from earlier work.
Series [14] relates to Plasmodium falciparum. The conditions noted are these: literature report; cited from earlier work.
Series [15] concerns mice. The conditions noted are these: mouse, in vivo; cited from earlier work.
For series [16], the system named is chickens. The conditions noted are these: in vivo; cited from earlier work.
The conditions of series [17]: in vivo; cited from earlier work.

For orientation: MIC50 means an inhibitory concentration at the 50% level, which refers to growth in some studies and to a panel of isolates in others.

Turning to `CN[C@H](CC(C)C)C(=O)N[C@H]1C(=O)N[C@@H](CC(N)=O)C(=O)N[C@H]2C(=O)N[C@H]3C(=O)N[C@H](C(=O)N[C@H](C(=O)O)c4cc(O)cc(O)c4-c4cc3ccc4O)[C@H](O)c3ccc(c(Cl)c3)Oc3cc2cc(c3O[C@@H]2O[C@H](CO)[C@@H](O)[C@H](O)[C@H]2O[C@H]2C[C@](C)(N)[C@H](O)[C@H](C)O2)Oc2ccc(cc2Cl)[C@H]1O` [Vancomycin], in series [1] (read-out: Vancomycin MIC), the MIC is 4 µg/mL (≈ 2.76 µM). For the same compound, the entries for the “Vancomycin MIC50” value in series [2], in series [3] and in series [4] were 0.58 µg/mL, 0.96 µg/mL and 1.1 µg/mL, respectively. Moreover, the entries for the “Vancomycin MIC (average)” value in [2], in series [3] and in [4] were 1.16 µg/mL, 1.92 µg/mL and 2.2 µg/mL, respectively. Besides, the “vancomycin MIC” value in series [5] is 3 to 8 µg/mL; in series [6], “greater than 100 μg/mL”.

For the compound `C/C(=C\c1ccc2c(c1)OCO2)[N+](=O)[O-]` [BDM-I, 3,4-methylenedioxy-β-methyl-β-nitrostyrene], the “BDM-I MIC (range over isolates)” value in series [7] lay in the range of 2 to 5 µg/mL. Besides, the MIC50 in series [8] (read-out: BDM-I MIC50) is 1.71 µg/mL (≈ 8.25 µM); in series [9] (read-out: BDM-I MIC50) it was 1.64 µg/mL (≈ 7.92 µM); in series [10] (read-out: BDM-I MIC50), 1.25 µg/mL (≈ 6.03 µM). The MIC was 3.42 µg/mL (≈ 16.5 µM) in series [8] (read-out: BDM-I MIC (average)); 3.28 µg/mL (≈ 15.8 µM) in [9] (read-out: BDM-I MIC (average)); 2.5 µg/mL (≈ 12.1 µM) in series [10] (read-out: BDM-I MIC (average)); 2 µg/mL (≈ 9.65 µM) in series [1] (read-out: BDM-I MIC, Sa375 before passage in BDM-I); 5 µg/mL (≈ 24.1 µM) in [1] (read-out: BDM-I MIC, Sa375 day 110 colonies (21 out of 21)). The “BDM-I MIC increase” value in [1] (Sa375, day 110 vs start, 21 out of 21 colonies) worked out at 3 µg/mL. The “Interaction with vancomycin (checkerboard, FICI)” value in series [11] is given as “synergistic activity”. The Antimicrobial spectrum entry in [12] is on record as “broadly microbicidal”. In series [13], the “Activity against Mycobacterium tuberculosis” value is on record as “active”. In addition, the “Activity against Plasmodium falciparum” value in [14] is on record as “active”. Moreover, the Oral toxicity result in [15] and in series [16] was “low oral toxicity” in each case. For the same compound, in [17], the “Absorption from the intestinal tract” value was “poorly absorbed”.
